Results: patent US20240197715A1, “PHARMACEUTICAL COMBINATIONS AND USES THEREOF” (NOVARTIS AG, priority 2022, published 2024)

Tests used:
[1] = tested on: SW620 (CCL-227, ATCC) MSS colorectal carcinoma xenografts; assay: SW620 MSS CRC xenograft efficacy in nude mice; format: in vivo; conditions: for effect on tumor growth of parental SW620 tumors: irinotecan 15 mg/kg i.v. once weekly, Compound A 120 mg/kg p.o. daily
Protocol: SW620 (CCL-227, ATCC) [MSS colorectal carcinoma (CRC)] was cultured in DMEM (#1-26F01-I, AMIMED) supplemented with 10% FCS (#2-0-1F30-I, BioConcept), 4 mM L-glutamine (#5-10K50-H, BioConcept) and 1 mM Sodium pyruvate (#5-60F00-H, BioConcept). Cells were passaged by washing first with Dulbecco's PBS without Ca^2+/Mg^2+ (#3-05F29-1, AMIMED), trypsinising cells with Trypsin 0.05% in PBS with EDTA (#5-51F00-H, AMIMED), centrifuging in the respective culture media, and splitting cells into fresh media at a ratio of 1:8, 2 times per week.
Athymic nude mice (Charles River, Germany) were allowed to adapt for 7 days upon arrival at the animal facility and housed in a pathogen-controlled environment (5 mice/Type III cage) with access to food and water ad libitum. Animals were identified with transponders. Studies described in this report were performed according to procedures covered by a permit number issued by the Kantonales Veterinäramt Basel-Stadt.
Subcutaneous tumors were initiated by injecting 5.0×10^6 SW620 tumor cells in 50% Matrigel (#354234, Corning) in HBSS (#H6648, SIGMA) in the right flank of nude mice. The efficacy experiment (n=6), started 11 days post-cell injection.
Compound A and Temozolomide were made-up fresh on a weekly basis and kept at 4° C. and protected from light. Compound A was dissolved in 20% Hydroxypropyl-ß-Cyclodextrine (HP-ß-CD, #H107-100G, SIGMA) in UltraPure™ Water (#10977-035, Invitrogen) and administered p.o. at 10 ml/kg. Temozolomide was dissolved in 30% PEG-400 (#202398-500G, SIGMA) and 70% Dulbecco's PBS without Ca^2+/Mg^2+ (#3-05F29-1, AMIMED) and administered p.o. at 10 mL/kg on 5 consecutive days within a 21 days cycle. Irinotecan was made-up fresh for each treatment once a week by diluting with NaCl 0.9% (#3-06S00-I, BioConcept). The solution was administered i.v. at 5 mL/kg.
Tumor volumes (TVol), determined from caliper measurements (using the formula I*w2*π/6) were measured two times per week. Tumor response was quantified by the change in tumor volume (endpoint minus starting value in mm^3) as the T/C (the ratio between the tumor volume in the treated group and in the untreated control group). In the case of a tumor regression or to assess the percentage of change in TVol, the tumor response was quantified by the percentage of regression of the starting TVol. The body-weight (BW) of the animal was measured three times per week allowing calculation at any particular time-point relative to the day of initiation of treatment (day 0) of the percentage change in BW (4% BW).
At day 43 post-cell injection, irinotecan was administered intravenously at 15 mg/kg once weekly for 7 weeks in combination with Compound A, also administered from day 43, orally at 120 mg/kg daily for 52 days.
Starting 11 days post-cell injection, temozolomide was administered orally on a 21 day cycle of 5 consecutive days at 100 mg/kg on 5 consecutive days (day 11 to day 15 and day 32 to day 36). At day 43 post-cell injection, to the first group irinotecan was administered intravenously at 15 mg/kg once weekly for 6 weeks, and to the second group irinotecan was administered intravenously at 15 mg/kg once weekly for 6 weeks in combination with Compound A, also administered from day 43, orally at 120 mg/kg daily for 46 days.

[2] = tested on: SW48 colorectal carcinoma cells; assay: SW48 xenograft efficacy in nude mice; format: in vivo; conditions: for effect on tumor growth: irinotecan 60 mg/kg i.v. weekly
Protocol: All animals were allowed to adapt for 7 days and housed in a pathogen-controlled environment (5 mice/Type III cage) with access to food and water ad libitum and were identified with transponders.
5.0×10^6 SW48 colorectal carcinoma cells were implanted subcutaneously in nude mice (Charles River, Germany). Treatment was initiated when tumors reached 150-200 mm^3 volume. Efficacy studies and tumor response were measured as above.

[3] = Example 12, Compound A 40 mg/kg p.o. qd, trametinib 0.3 mg/kg p.o. qd
[4] = Example 18, Compound A 20 mg/kg p.o. qd

| SMILES | outcome after stopping temozolomide and irinotecan on day 129 ([1]; SW620, all treatments stopped vs still treated with compound A only) | effect on tumor growth of parental SW620 tumors [1] | duration of response / relapse [2, 3] | tumor regression [2, 3] [%] | tumor regression ([2]; Example 15, Compound A 20 mg/kg p.o. qd, BAY-1895344 50 mg/kg p.o. twice a day, 3 days on/4 off) [%] | duration of response / relapse ([2]; Example 15, Compound A 20 mg/kg, BAY-1895344 50 mg/kg) | effect on tumor growth [2, 4] | duration of response / relapse ([2]; Example 18, Compound A 20 mg/kg, irinotecan 60 mg/kg) | relapse of TMZ pre-treated SW620 tumors ([1]; after 2 cycles TMZ, treatment from day 43) |
| --- | --- | --- | --- | --- | --- | --- | --- | --- | --- |
| CCc1c(N2CCN(C(=O)c3ncnc(C)c3O)CC2)c(=O)n2nc(C3=CCOCC3)nc2n1CC(=O)Nc1ccc(C(F)(F)F)cc1Cl [Compound A] | remained below 50% tumor regression | delay of the tumor growth | for 30 days followed by relapse in all tumor-bearing mice | 40 | 15 | for 30 days followed by relapse in all tumor-bearing mice | stable disease | for 21 days followed by a relapse in all tumor-bearing mice | – |
| CCc1c2c(nc3ccc(OC(=O)N4CCC(N5CCCCC5)CC4)cc13)-c1cc3c(c(=O)n1C2)COC(=O)[C@]3(O)CC [irinotecan] | – | delay of the tumor growth | – | – | – | – | no effect | – | the tumors relapsed |
